This note sets out measurements from patent publication US8962627B2, “Oxime derivatives and their use as allosteric modulators of metabotropic glutamate receptors” (Prestwick Chemical, Inc., priority 2009, dated 2015).

For data set [1], the target named is T1, human mGluR4 transiently over-expressed in HEK-293 cells (Homo sapiens, UniProt Q14833).
T1 construct: expressed in transfected cells; host or cells: HEK-293 cells, transient co-transfection by electroporation
Briefly: Human mGluR4 positive allosteric modulator evaluation using Ca++ functional assay. The format is cell-based. Particulars: HEK-293 cells co-transfected with hmGluR4 and chimeric G protein; EC10 glutamate; intracellular calcium (Fluo4AM); read-out: mean EC50 of agonist/positive allosteric modulator activity on mGluR4. Summed up: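 Fluo4AM-loaded HEK-293 cells expressing hmGluR4 plus a chimeric G protein were read for intracellular Ca2+ (ex 485, em 525 nm). PAM effect measured as potentiation of EC10 glutamate after a 60 s compound-alone agonist read; EC50 from variable-slope sigmoidal fits of 6–9 doses, duplicates, twice.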
For orientation: Calcium flux is commonly read through the fluorescence of an indicator in the cells.

In data set [2] the test system is mice. Briefly: Haloperidol-induced catalepsy model (bar test) in the mouse. The format is in vivo. As to conditions: 30 mg/kg i.p. consecutively with haloperidol 1 mg/kg i.p.; compared with vehicle; FIG. 1. The procedure: In-Vivo Evaluation in the Haldoperidol-Induced Catalepsy Model in the Mouse
This method, which detects anti-Parkinsonian activity, follows that described by Pires et al. (J Med and Biol Res 38 1867-1872, 2005; Shiozaki et al., Psychopharmacology 147, 90-95, 1999)
Catalepsy was assessed using the bar test in mice submitted to acute intra-peritoneal administration of Haloperidol 1 mg/kg. Mice (male Rj: NMRI mice, weighing 25-30 g at the beginning of the experiment) placed in group of 5 in Plexiglas cages, were injected with Haloperidol (1 mg/kg i.p.). […] The catalepsy response of one mouse was measured as the time the animal maintained an imposed posture with both forelimbs placed on a horizontal 0.9 cm diameter wire bar suspended 4 cm above a platform. The end point of catalepsy was considered to occur when both forelimbs were removed from the bar, the mouse climbed onto the bar or if the animal moved its head in an exploratory manner. A cut-off time of 180 seconds was applied. The degree of catalepsy was scored 45 min after Haloperidol administration and continued at 45 minutes intervals for a total of 270 minutes. Between determinations, the animals were returned to their home cages. The compound of Example 63, administered i.p. consecutively with haloperidol, was evaluated at 30 mg/kg and compared with a vehicle control group. […]

Data set [3] deals with mice. Briefly: Marble burying test in the mouse. Particulars: p<0.001. The format is in vivo. The source says:
In-Vivo Evaluation in the Marble Burying Test in the Mouse
The method, which detects anxiolytic/tranquilizing activity, follows that described by Broekkamp at al. (Eur. J. Pharmacol., 126, 223-229, 1986). Mice exposed to novel object (marbles) will bury them in the sawdust floor covering. Anxiolytics decrease the number of marbles buried at non-sedative doses.
Mice were individually placed in transparent plastic cages (33×21×18 cm) with 5 cm of sawdust on the floor and 25 marbles grouped in the centre of the cage. The cage was covered with an inverted plastic cage. Each test cage, together with the marbles, was impregnated with mouse odor before-hand by leaving 10 mice in the cage for 15 minutes. These mice then played no further role in the experiment. The number of marbles covered by sawdust (⅔ or more) was counted at the end of a 30 minute test. 12 mice were studied per group. The test was performed blind (apart from positive control). The compound of Example 85 was evaluated at 2 doses (100 and 300 mg/kg), administered p.o. 30 minutes before the test, and compared with vehicle control groups. Clobazam (8 mg/kg i.p.), administered 30 minutes before the test, was used as reference substance and was compared with the vehicle control group. Data were analyzed by comparing treated groups with control group using unpaired Student's t tests.

SMILES strings stand for the structures. Bounds are passed on as bounds.

T1 sequence (Q14833 33-912): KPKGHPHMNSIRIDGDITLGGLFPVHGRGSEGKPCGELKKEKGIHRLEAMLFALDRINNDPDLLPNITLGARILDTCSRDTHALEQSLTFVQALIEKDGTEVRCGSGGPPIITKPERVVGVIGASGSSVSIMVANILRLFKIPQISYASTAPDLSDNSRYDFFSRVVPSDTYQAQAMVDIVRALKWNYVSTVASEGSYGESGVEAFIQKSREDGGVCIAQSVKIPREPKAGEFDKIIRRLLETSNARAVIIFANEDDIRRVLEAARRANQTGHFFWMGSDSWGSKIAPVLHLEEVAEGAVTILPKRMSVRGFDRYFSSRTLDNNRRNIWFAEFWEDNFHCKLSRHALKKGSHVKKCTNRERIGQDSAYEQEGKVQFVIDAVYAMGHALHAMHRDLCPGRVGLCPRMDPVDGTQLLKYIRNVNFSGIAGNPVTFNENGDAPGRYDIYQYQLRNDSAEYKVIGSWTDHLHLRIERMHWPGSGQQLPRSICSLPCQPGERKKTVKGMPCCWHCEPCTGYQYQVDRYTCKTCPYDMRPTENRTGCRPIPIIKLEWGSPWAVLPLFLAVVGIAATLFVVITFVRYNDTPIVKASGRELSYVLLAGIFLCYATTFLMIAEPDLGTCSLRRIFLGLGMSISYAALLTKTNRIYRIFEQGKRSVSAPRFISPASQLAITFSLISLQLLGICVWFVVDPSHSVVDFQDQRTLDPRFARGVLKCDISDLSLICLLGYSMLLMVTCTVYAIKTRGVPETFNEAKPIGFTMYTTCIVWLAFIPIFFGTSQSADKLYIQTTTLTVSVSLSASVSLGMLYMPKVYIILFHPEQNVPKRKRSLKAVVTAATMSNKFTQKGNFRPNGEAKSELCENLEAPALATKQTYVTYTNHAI

In the case of `ON=c1cc(-c2cc3cccn3cn2)oc2ccccc12` [Example 63, 2-Pyrrolo[1,2-c]pyrimidin-3-yl-chromen-4-one oxime], in data set [1], the EC50 was < 1000 nM. Besides, in the data set with mice [2], the “anticataleptic activity (mean time of latency spent on the bar)” value was “significant anticataleptic activity”.
For `Cl.ON=c1cc(-c2cc3cccn3cn2)oc2ccc(OCCN3CCOCC3)cc12` [Example 85, 6-(3-Morpholin-4-yl-ethoxy)-2-pyrrolo[1,2-c]pyrimidin-3-yl-chromen-4-one oxime hydrochloride], the EC50 in data set [1] is < 1000 nM. The “decrease of the number of marbles covered by sawdust, as compared with vehicle controls” value is on record as −70% in the data set with mice [3] (100 mg/kg p.o. 30 minutes before the test) and −83% with mice [3] (300 mg/kg p.o. 30 minutes before the test).
With `Cl.ON=c1cc(-c2cn3cccc3cn2)oc2ccc(OCCN3CCC(F)(F)CC3)cc12` [Example 124, 6-[2-(4,4-Difluoro-piperidin-1-yl)-ethoxy]-2-pyrrolo[1,2-a]pyrazin-3-yl-chromen-4-one oxime, hydrochloride], the melting point (in general, the temperature of the solid-liquid transition) was 225 to 230 °C. For the same compound, the EC50 in data set [1] was < 1000 nM.
As for `Cl.ON=c1cc(-c2cc3sccc3cn2)oc2ccc(OCCN3CCCC(F)(F)C3)cc12` [Example 131, 6-[2-(3,3-Difluoro-piperidin-1-yl)-ethoxy]-2-thieno[3,2-c]pyridin-6-yl-chromen-4-one oxime, hydrochloride], the melting point was > 250 °C (dec.). Further, the EC50 in data set [1] is < 1000 nM.
For `Cl.OC[C@@H]1CCCN1CCOc1ccc2oc(-c3cc4cccn4cn3)cc(=NO)c2c1` [Example 95, 6-[2-((S)-2-hydroxymethylpyrrolidin-1-yl)-ethoxy]-2-pyrrolo[1,2-c]pyrimidin-3-yl-chromen-4-one oxime, hydrochloride], in that order: > 220 °C (dec.) and < 5000 nM.
